Results taken from PubChem BioAssay (NCI).
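The compound was tested at five concentrations on cells cultured in 96-well plates, with a 48-hour exposure period. Abbreviation: GI50, concentration required for 50% inhibition of growth. TGI: concentration producing complete growth inhibition.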

Key:
Test in all cases: NCI tumour cell line growth inhibition, 48 h
SW-620 colon = system: SW-620 colon
HCT-15 colon = system: HCT-15 colon
786-0 renal = system: 786-0 renal
SF-295 CNS = system: SF-295 CNS
MALME-3M melanoma = system: MALME-3M melanoma
HCC-2998 colon = system: HCC-2998 colon
SK-MEL-5 melanoma = system: SK-MEL-5 melanoma
KM12 colon = system: KM12 colon
MCF7 breast = system: MCF7 breast
UACC-62 melanoma = system: UACC-62 melanoma
SF-268 CNS = system: SF-268 CNS
NCI-H226 lung = system: NCI-H226 lung
IGROV1 ovarian = system: IGROV1 ovarian
OVCAR-8 ovarian = system: OVCAR-8 ovarian
TK-10 renal = system: TK-10 renal
DU-145 prostate = system: DU-145 prostate
OVCAR-5 ovarian = system: OVCAR-5 ovarian
HOP-92 NSCLC = system: HOP-92 NSCLC
SK-MEL-28 melanoma = system: SK-MEL-28 melanoma
SN12C renal = system: SN12C renal
RPMI-8226 leukemia = system: RPMI-8226 leukemia
A549 NSCLC = system: A549 NSCLC
UACC-257 melanoma = system: UACC-257 melanoma
K-562 leukemia = system: K-562 leukemia
RXF 393 renal = system: RXF 393 renal
MOLT-4 leukemia = system: MOLT-4 leukemia
SK-OV-3 ovarian = system: SK-OV-3 ovarian
HOP-62 NSCLC = system: HOP-62 NSCLC
HT29 colon = system: HT29 colon
SNB-75 CNS = system: SNB-75 CNS
HCT-116 colon = system: HCT-116 colon
MDA-MB-231 breast = system: MDA-MB-231 breast
OVCAR-3 ovarian = system: OVCAR-3 ovarian
UO-31 renal = system: UO-31 renal
OVCAR-4 ovarian = system: OVCAR-4 ovarian
MDA-MB-435 = system: MDA-MB-435
SR leukemia = system: SR leukemia
A498 renal = system: A498 renal
T-47D breast = system: T-47D breast
NCI-H460 lung = system: NCI-H460 lung
EKVX NSCLC = system: EKVX NSCLC
PC-3 prostate = system: PC-3 prostate
CAKI-1 renal = system: CAKI-1 renal
ACHN renal = system: ACHN renal
M14 melanoma = system: M14 melanoma
SNB-19 CNS = system: SNB-19 CNS
U251 CNS = system: U251 CNS
HL-60(TB) leukemia = system: HL-60(TB) leukemia
NCI/ADR-RES ovarian = system: NCI/ADR-RES ovarian
COLO 205 colon = system: COLO 205 colon
SK-MEL-2 melanoma = system: SK-MEL-2 melanoma
HS 578T breast = system: HS 578T breast
LOX IMVI melanoma = system: LOX IMVI melanoma
SF-539 CNS = system: SF-539 CNS
BT-549 breast = system: BT-549 breast
NCI-H522 lung = system: NCI-H522 lung

N#Cc1nc(-c2ccccc2)oc1S(=O)(=O)N1CCN(CCc2ccccn2)CC1
GI50 (SW-620 colon): 0.985 µM
TGI (SW-620 colon): 2.7 µM
GI50 (HCT-15 colon): 1.86 µM
TGI (HCT-15 colon): 5.87 µM
GI50 (786-0 renal): 2.21 µM
TGI (786-0 renal): 6.09 µM
GI50 (SF-295 CNS): 29.2 µM
TGI (SF-295 CNS): 87.2 µM
GI50 (MALME-3M melanoma): 1.87 µM
TGI (MALME-3M melanoma): 3.69 µM
GI50 (HCC-2998 colon): 14.2 µM
TGI (HCC-2998 colon): 28.9 µM
GI50 (SK-MEL-5 melanoma): 16.7 µM
TGI (SK-MEL-5 melanoma): 32.4 µM
GI50 (KM12 colon): 13.5 µM
TGI (KM12 colon): 36.4 µM
GI50 (MCF7 breast): 1.83 µM
TGI (MCF7 breast): 10.2 µM
GI50 (UACC-62 melanoma): 9.85 µM
TGI (UACC-62 melanoma): 23.2 µM
GI50 (SF-268 CNS): 10.5 µM
TGI (SF-268 CNS): 35.9 µM
GI50 (NCI-H226 lung): 2.58 µM
TGI (NCI-H226 lung): 7.78 µM
GI50 (IGROV1 ovarian): 15.1 µM
TGI (IGROV1 ovarian): 47.9 µM
GI50 (OVCAR-8 ovarian): 14 µM
TGI (OVCAR-8 ovarian): 49.9 µM
GI50 (TK-10 renal): 7.32 µM
TGI (TK-10 renal): 19.7 µM
GI50 (DU-145 prostate): 4.56 µM
TGI (DU-145 prostate): 22.3 µM
GI50 (OVCAR-5 ovarian): 12.5 µM
TGI (OVCAR-5 ovarian): 26 µM
GI50 (HOP-92 NSCLC): 2.23 µM
TGI (HOP-92 NSCLC): 6.92 µM
GI50 (SK-MEL-28 melanoma): 2.9 µM
TGI (SK-MEL-28 melanoma): 9.42 µM
GI50 (SN12C renal): 10.4 µM
TGI (SN12C renal): 24.2 µM
GI50 (RPMI-8226 leukemia): 2.75 µM
GI50 (A549 NSCLC): 24.6 µM
TGI (A549 NSCLC): > 100 µM
GI50 (UACC-257 melanoma): 4.58 µM
TGI (UACC-257 melanoma): 17.5 µM
GI50 (K-562 leukemia): 0.562 µM
TGI (K-562 leukemia): 7.78 µM
GI50 (RXF 393 renal): 1.89 µM
TGI (RXF 393 renal): 3.74 µM
GI50 (MOLT-4 leukemia): 2.16 µM
TGI (MOLT-4 leukemia): 8.35 µM
GI50 (SK-OV-3 ovarian): 30.4 µM
TGI (SK-OV-3 ovarian): > 100 µM
GI50 (HOP-62 NSCLC): 20.8 µM
TGI (HOP-62 NSCLC): 58.9 µM
GI50 (HT29 colon): 1.72 µM
TGI (HT29 colon): 3.44 µM
GI50 (SNB-75 CNS): 12.3 µM
TGI (SNB-75 CNS): 24.8 µM
GI50 (HCT-116 colon): 1.28 µM
TGI (HCT-116 colon): 2.61 µM
GI50 (MDA-MB-231 breast): 15.5 µM
TGI (MDA-MB-231 breast): 34.4 µM
GI50 (OVCAR-3 ovarian): 1.67 µM
TGI (OVCAR-3 ovarian): 3.22 µM
GI50 (UO-31 renal): 2.64 µM
TGI (UO-31 renal): 9.81 µM
GI50 (OVCAR-4 ovarian): 2.91 µM
TGI (OVCAR-4 ovarian): 9.94 µM
GI50 (MDA-MB-435): 4.08 µM
TGI (MDA-MB-435): 16.7 µM
GI50 (SR leukemia): 1.41 µM
TGI (SR leukemia): 5.19 µM
GI50 (A498 renal): > 100 µM
TGI (A498 renal): > 100 µM
GI50 (T-47D breast): 1.87 µM
TGI (T-47D breast): 4.41 µM
GI50 (NCI-H460 lung): 12.3 µM
TGI (NCI-H460 lung): 32.7 µM
GI50 (EKVX NSCLC): 23.3 µM
TGI (EKVX NSCLC): 68.2 µM
GI50 (PC-3 prostate): 12.3 µM
TGI (PC-3 prostate): 26.7 µM
GI50 (CAKI-1 renal): 1.18 µM
TGI (CAKI-1 renal): 2.41 µM
GI50 (ACHN renal): 1.67 µM
TGI (ACHN renal): 3.09 µM
GI50 (M14 melanoma): 2.29 µM
TGI (M14 melanoma): 9.51 µM
GI50 (SNB-19 CNS): 20.5 µM
TGI (SNB-19 CNS): 57.9 µM
GI50 (U251 CNS): 13.5 µM
TGI (U251 CNS): 27 µM
GI50 (HL-60(TB) leukemia): 1.55 µM
TGI (HL-60(TB) leukemia): 4.85 µM
GI50 (NCI/ADR-RES ovarian): 19.3 µM
TGI (NCI/ADR-RES ovarian): 94.5 µM
GI50 (COLO 205 colon): 1.54 µM
TGI (COLO 205 colon): 3.02 µM
GI50 (SK-MEL-2 melanoma): 12.4 µM
TGI (SK-MEL-2 melanoma): 29.2 µM
GI50 (HS 578T breast): 17.3 µM
TGI (HS 578T breast): 61.9 µM
GI50 (LOX IMVI melanoma): 1.22 µM
TGI (LOX IMVI melanoma): 2.69 µM
GI50 (SF-539 CNS): 3.99 µM
TGI (SF-539 CNS): 13.7 µM
GI50 (BT-549 breast): 3.36 µM
TGI (BT-549 breast): 12.7 µM
GI50 (NCI-H522 lung): 1.04 µM
TGI (NCI-H522 lung): 2.36 µM
